{"source": "patent US11325980B2", "about": "“Combination therapy using a LIV1-ADC and a chemotherapeutic” (SEATTLE GENETICS, INC., priority 2016, dated 2022)", "molecules": {"B1": {"name": "SGN-LIV1A: LIV-1-directed antibody-drug conjugate: humanized antibody hLIV22, valine-citrulline linker, monomethyl auristatin E; average of 4 MMAE per antibody (conjugate, chains of the INN, looked up)", "VH": "QVQLVQSGAEVKKPGASVKVSCKASGLTIEDYYMHWVRQAPGQGLEWMGWIDPENGDTEYGPKFQGRVTMTRDTSINTAYMELSRLRSDDTAVYYCAVHNAHYGTWFAYWGQGTLVTVSS", "VL": "DVVMTQSPLSLPVTLGQPASISCRSSQSLLHSSGNTYLEWYQQRPGQSPRPLIYKISTRFSGVPDRFSGSGSGTDFTLKISRVEAEDVGVYYCFQGSHVPYTFGGGTKVEIK", "modifications": "vedotin (vc-MMAE)", "notes": "LIV-1-directed antibody-drug conjugate: humanized antibody hLIV22, valine-citrulline linker, monomethyl auristatin E; average of 4 MMAE per antibody"}}, "system": "MCF-7 cells", "assay": "In vivo tumor growth inhibition (TGI), MCF-7 cells implanted subcutaneously in NSG mice", "design": "species or system NOD Scid Gamma (NSG) mice", "conditions": "for Expected combination TGI: expected additive; for Combinatorial benefit: observed minus expected combination TGI; for TGI: single agent; for ranking of combinatorial benefit in vivo: combined with SGN-LIV1A, doses of Table 2, nab-paclitaxel 10 mg/kg", "description": "NOD Scid Gamma (NSG) mice were obtained from Jackson Laboratory and implanted with 17-β-estradiol pellet (Innovative Research of America; Sarasota, Fla.) one day prior to cell implant. Five million MCF-7 cells were implanted subcutaneously with Matrigel (BD Biosciences; Franklin Lakes, N.J.) and tumor volume was determined by a digital caliper twice a week, using the formula: volume=½×length width^2.\nMice received treatments when the average tumor volume reached 100 mm^3. The treatment regimen for each agent was: doxorubicin, 1 mg/kg q4dx3 intravenous (IV); SGN-LIV1, 1 mg/kg q4dx4 intraperitoneal (IP); […]; carboplatin 10 mg/kg q7dx3 IP; cyclophosphamide, 40 mg/kg q7dx3 IV; gemcitabine 20 mg/kg q7dx2 IP; and paclitaxel 10 mg/kg q3dx5 IP. Combination groups received the first dose of SGN-LIV1A and combination drug on the same day. n=6 for each group. The effects of each drug and their combination on tumor growth were plotted in FIGS. 6-8.\nTo determine the combined benefit in vivo, tumor growth inhibition (TGI) was compared using the area under the curve between untreated, single agent groups, and combined groups on the date the untreated animals were euthanized (Table 2). […] Thus, the expected additive TGI for combination is […].", "key": {"[1]": {"conditions": "named drug 40 mg/kg combined with 1 mg/kg SGN-LIV1A"}, "[2]": {"conditions": "named drug 1 mg/kg combined with 1 mg/kg SGN-LIV1A"}, "[3]": {"conditions": "dose 1 mg/kg, AUC vs untreated on the date untreated animals were euthanized"}, "[4]": {"conditions": "named drug 10 mg/kg combined with 1 mg/kg SGN-LIV1A"}, "[5]": {"conditions": "named drug 20 mg/kg combined with 1 mg/kg SGN-LIV1A"}}, "data": [{"molecule": "O=P1(N(CCCl)CCCl)NCCCO1", "note": "(centres unmarked) [cyclophosphamide]", "values": [{"measurement": "Observed combination TGI", "setting": "[1]", "result": 39, "unit": "%"}, {"measurement": "Expected combination TGI", "setting": "[1]", "result": 45, "unit": "%"}, {"measurement": "Combinatorial benefit", "setting": "named drug 40 mg/kg with 1 mg/kg SGN-LIV1A", "result": "−6", "unit": "%"}, {"measurement": "TGI", "setting": "dose 40 mg/kg, AUC vs untreated", "result": 10, "unit": "%"}]}, {"molecule": "COc1cccc2c1C(=O)c1c(O)c3c(c(O)c1C2=O)C[C@@](O)(C(=O)CO)C[C@@H]3O[C@H]1C[C@H](N)[C@H](O)[C@H](C)O1", "note": "[doxorubicin]", "values": [{"measurement": "ranking of combinatorial benefit in vivo", "result": "highest combinatorial benefit"}, {"measurement": "Observed combination TGI", "setting": "[2]", "result": 75, "unit": "%"}, {"measurement": "Expected combination TGI", "setting": "[2]", "result": 55, "unit": "%"}, {"measurement": "Combinatorial benefit", "setting": "named drug 1 mg/kg with 1 mg/kg SGN-LIV1A", "result": 20, "unit": "%"}, {"measurement": "TGI", "setting": "[3]", "result": 26, "unit": "%"}]}, {"molecule": "N.N.O=C([O-])C1(C(=O)[O-])CCC1.[Pt+2]", "note": "[carboplatin]", "values": [{"measurement": "ranking of combinatorial benefit in vivo", "result": "highest combinatorial benefit"}, {"measurement": "Observed combination TGI", "setting": "[4]", "result": 60, "unit": "%"}, {"measurement": "Expected combination TGI", "setting": "[4]", "result": 52, "unit": "%"}, {"measurement": "Combinatorial benefit", "setting": "named drug 10 mg/kg with 1 mg/kg SGN-LIV1A", "result": 8, "unit": "%"}, {"measurement": "TGI", "setting": "dose 10 mg/kg, AUC vs untreated", "result": 21, "unit": "%"}]}, {"molecule": "Nc1ccn([C@@H]2O[C@H](CO)[C@@H](O)C2(F)F)c(=O)n1", "note": "[gemcitabine]", "values": [{"measurement": "Observed combination TGI", "setting": "[5]", "result": 54, "unit": "%"}, {"measurement": "Expected combination TGI", "setting": "[5]", "result": 51, "unit": "%"}, {"measurement": "combined effect in vivo", "setting": "named drug 20 mg/kg when combined with SGN-LIV1A", "result": "nearly additive"}, {"measurement": "Combinatorial benefit", "setting": "named drug 20 mg/kg with 1 mg/kg SGN-LIV1A", "result": 3, "unit": "%"}, {"measurement": "TGI", "setting": "dose 20 mg/kg, AUC vs untreated", "result": 20, "unit": "%"}]}, {"molecule": "B1", "values": [{"measurement": "TGI", "setting": "[3]", "result": 39, "unit": "%"}]}]}
